{
  "source": "patent US20070286886A1",
  "about": "“Materials And Methods For Inducing Apoptosis In Adipocytes” (University of Tennessee Research Foundation, priority 2004, published 2007)",
  "key": {"caspase-1": {"system": "caspase-1", "test": "Caspase-1 mRNA expression by real-time PCR in 3T3-L1 and UCP2-transfected 3T3-L1 adipocytes", "type": "cell-based", "conditions": "DNP 25 μM and 50 μM, 24 h; P<0.05", "experimental": "(§1) 3T3-L1 preadipocytes were incubated at a density of 8000 cells/cm2 (10 cm2 dish) and grown in Dulbecco's modified Eagle's medium (DMEM) containing 10% FBS and antibiotics (adipocyte medium) at 37° C. in 5% CO2 in air. Confluent preadipocytes were induced to differentiate with a standard differentiation medium consisting of DMEM-F10 (1:1, vol/vol) medium supplemented with 1% FBS, 1 μM dexamethasone, IBMX (0.5 mM), and antibiotics (1% penicillin-streptomycin). Preadipocytes were maintained in this differentiation medium for 3 days and subsequently cultured in adipocyte medium. Cultures were re-fed every 2-3 days to allow 90% cells to reach full differentiation before they were chemically treated. Chemicals were freshly diluted in adipocyte medium before treatment. Cells were washed with fresh adipocyte medium, re-fed with medium containing the different treatments, and incubated at 37° C. in 5% CO2 in air before analysis. Cell viability was measured via trypan blue exclusion.\n(§2) UCP2 full-length cDNAs were amplified by […] using mRNAs isolated from mouse white adipose tissues. The PCR primers for this amplification are shown as follows: UCP2 forward, 5′-[…]-3′, reverse, 5′-[…]-3′. The PCR products were then subcloned into pcDNA4/His expression vectors. The linearized constructs were transfected into 3T3-L1 preadipocytes using lipofectamine plus standard protocol (Invitrogen, Carlsbad, Calif.). After 48 h of transfection, cells were split and cultured in selective medium containing 400 ug/ml zeocin for the selection of resistant colonies. […]\n(§3) Adipocyte caspase-1, caspase-3, Bcl-2, and Bax mRNA were quantitatively measured using a Smart Cycler Real Time PCR System (Cepheid, Sunnyvale, Calif.) with a TaqMan 1000 Core Reagent Kit (Applied Biosystems, Branchburg, N.J.). […] Reactions of quantitative RT-PCR for standards and unknown samples were Cepheid, Sunnyvale, Calif.) and TaqMan Real Time PCR Core Kit. The mRNA quantitation for each sample was further normalized using the corresponding 18 s quantitation, with a forward primer, 5′-[…]-3′, and a reverse primer, 5′-[…]-3′."}, "caspase-3": {"system": "caspase-3", "test": "Caspase-3 mRNA expression by real-time PCR in 3T3-L1 and UCP2-transfected 3T3-L1 adipocytes", "type": "cell-based", "experimental": "as §1\nUCP2 full-length cDNAs were amplified by […] using mRNAs isolated from mouse white adipose tissues. The PCR primers for this amplification are shown as follows: UCP2 forward, 5′-[…]-3′, reverse, 5′-[…]-3′. The PCR products were then subcloned into pcDNA4/His expression vectors. The linearized constructs were transfected into 3T3-L1 preadipocytes using lipofectamine plus standard protocol (Invitrogen, Carlsbad, Calif.). After 48 h of transfection, cells were split and cultured in selective medium containing 400 ug/ml zeocin for the selection of resistant colonies. Cells were fed with selective medium every 3 days until resistant colonies could be identified. These resistant foci were picked, expanded, tested for expression, and frozen for future experiments.\nA total cellular RNA isolation kit (Ambion, Austin, Tex.) was used to extract total RNA from 3T3-L1 cells according to the manufacturer's instructions.\nAdipocyte caspase-1, caspase-3, Bcl-2, and Bax mRNA were quantitatively measured using a Smart Cycler Real Time PCR System (Cepheid, Sunnyvale, Calif.) with a TaqMan 1000 Core Reagent Kit (Applied Biosystems, Branchburg, N.J.). The primers and probe sets were ordered from Applied Biosystems TaqMan Assays-on-Demand Gene Expression primers and probe set collection according to the manufacturer's instructions. Pooled 3T3-L1 adipocyte total RNA was serial-diluted in the range of 1.5625-25 ng and used to establish a standard curve; total RNAs for unknown samples were also diluted in this range. Reactions of quantitative RT-PCR for standards and unknown samples were Cepheid, Sunnyvale, Calif.) and TaqMan Real Time PCR Core Kit. The mRNA quantitation for each sample was further normalized using the corresponding 18 s quantitation, with a forward primer, 5′-[…]-3′, and a reverse primer, 5′-[…]-3′.\n3T3-L1 preadipocytes were incubated at a density of 8000 cells/cm2 (10 cm2 dish) and grown in Dulbecco's modified Eagle's medium (DMEM) containing 10% FBS and antibiotics at 37° C. in 5% CO2. Confluent preadipocytes were induced to differentiate with a standard differentiation medium consisting of DMEM-F 10 (1:1, vol/vol) medium supplemented with 1% FBS, 1 μM dexamethasone, IBMX (0.5 mM) and antibiotics (1% penicillin/streptomycin). Preadipocytes were maintained in this differentiation medium for 3 days and subsequently cultured in adipocyte medium. Cultures were re-fed every 2-3 days to allow 90% cells to reach fully differentiation before conducting chemical treatment. Chemicals were freshly diluted in adipocyte medium before treatment. Cells were washed with fresh adipocyte medium, re-fed with medium containing the different treatments, and incubated at 37° C. in 5% CO2 in air before analysis. Cell viability was measured via trypan blue exclusion.\nAdipocytes were incubated with adipocyte medium for 24 h with or without GDP, BK 8644, GDP plus BK8644 before total RNA extraction. […]"}, "Bcl-2/Bax": {"system": "Bcl-2/Bax", "test": "Bcl-2/Bax expression ratio by real-time PCR in 3T3-L1 and UCP2-transfected 3T3-L1 adipocytes", "type": "cell-based", "conditions": "DNP 25 μM and 50 μM, 24 h; P<0.02", "experimental": "as §1, §2, §3"}, "[1]": {"system": "3T3-L1 and UCP2-transfected 3T3-L1 cells", "test": "Mitochondrial membrane potential (JC-1 fluorometry) in adipocytes", "type": "cell-based", "conditions": "for increase in mitochondrial potential: p<0.05", "experimental": "(§4) Adipocytes were incubated with adipocyte medium for 4 h with or without 1α,25-(OH)2-D3. Mitochondrial membrane potential was analyzed fluorometrically with a lipophilic cationic dye JC-1 (5,5′,6,6′-tetrachloro-1,1′,3,3′-tetraethylbenzimidazol carbocyanine iodide) using a mitochondrial potential detection kit (Biocarta, San Diego, Calif.). Mitochondrial potential was determined as the ratio of red fluorescence (excitation 550 nm, emission 600 nm) and green fluorescence (excitation 485 nm, emission 535 nm) using a fluorescence microplate reader.\nas §4, with “GDP, BK 8644, GDP plus BK8644.” for “1α,25-(OH)2-D3.”"}, "[2]": {"system": "3T3-L1 and UCP2-transfected 3T3-L1 adipocytes", "test": "Cytosolic/intracellular calcium (fura-2 dual-wavelength fluorescence imaging) in adipocytes", "type": "cell-based", "conditions": "3T3-L1 cells; data not shown"}, "UCP2": {"system": "UCP2", "test": "UCP2 expression in 3T3-L1 cells (western blot, UCP2/actin)", "type": "cell-based, mouse", "conditions": "siRNA transfected 3T3-L1 cells, 48 hrs after transfection", "experimental": "Duplex siRNA corresponding to UCP2 gene was designed and chemically synthesized by Invitrogen. The following gene-specific sequences were used successfully: Si-UCP2 sense 5′-GCCUCUACGACUCUGUCAA-3′ and antisense […]. Transfection of siRNA was performed with Oligofectamine™ reagent (Invitrogen Life Technologies, CA) in 6-well plates. Briefly, Oligofectamine diluted in DMEM was applied to the duplex siRNA mixture, and the formulation was continued for 20 min to allow the Oligofectamine-oligonucleotide complex to form. Per well, 800 μl of plating medium and 10 ul of 20 μM duplex siRNA duplex siRNA formulated with 4 μl of Oligofectamine were applied in a final volume of 1 ml. Cells were then incubated at […] in a CO2 incubator for 4 hrs. […]\nAdipocytes were harvested and sonicated in a homogenization buffer containing 50 mM Tris-HCl (PH 7.4), 250 mM sucrose, 1 mM EDTA, 1 mM dithiothreitol, 1% (v/v) Triton X, 10% protease cocktail (Sigma). […] Homogenate intrafranatant protein from equal numbers of cells (determined via protein quantitation using Bradford method as described previously) was boiled in Laemmli sample buffer and subject to 10% SDS-polyacrylamide gel electrophoresis (PAGE). […] Visualization was detected with chemiluminescence reagent, using the Western Blotting Luminal Reagent (Santa Cruz Biotechnology, CA)."}, "[3]": {"conditions": "siRNA transfected 3T3-L1 cells (UCP2 ko) vs control"}},
  "data": [
    {"molecule": "O=[N+]([O-])c1ccc(O)c([N+](=O)[O-])c1", "note": "[DNP, 2,4-dinitrophenol]", "values": [
      {"measurement": "basal caspase-1 expression level compared with control cells", "setting": "caspase-1", "result": "significantly higher"},
      {"measurement": "basal caspase-3 expression level compared with control cells", "setting": "caspase-3; DNP 25 μM and 50 μM, 24 h, P<0.05", "result": "significantly higher"},
      {"measurement": "Bcl-2/Bax ratio versus nontransfected 3T3-L1 cells", "setting": "Bcl-2/Bax", "result": "significantly lower"}
    ]},
    {"molecule": "Nc1nc2c(ncn2[C@@H]2O[C@H](COP(=O)(O)OP(=O)(O)O)[C@@H](O)[C@H]2O)c(=O)[nH]1", "note": "[GDP, guanosine 5′-diphosphate]", "values": [
      {"measurement": "suppression of caspase-3 expression in BK8644 pretreated cells", "setting": "caspase-3; 3T3-L1 cells pretreated with BK8644, p<0.05", "result": 45, "unit": "%"},
      {"measurement": "increase in mitochondrial potential", "setting": "[1]; 100 μM, 3T3-L1 cells, 4 h", "result": 27, "unit": "%"},
      {"measurement": "increase in mitochondrial potential", "setting": "[1]; 500 μM, 3T3-L1 cells, 4 h", "result": 48, "unit": "%"},
      {"measurement": "mitochondrial potential", "setting": "[1]; 3T3-L1 cells, GDP", "result": "increased"},
      {"measurement": "[Ca2+]i level", "setting": "[2]", "result": "decreased"}
    ]},
    {"molecule": "siRNA: duplex siRNA corresponding to UCP2 gene, sense 5′-GCCUCUACGACUCUGUCAA-3′ (antisense UUGACAGAGUCGAGGC; chemistry not given here)", "values": [
      {"measurement": "decrease in caspase-3 expression", "setting": "caspase-3; [3]", "result": 58, "unit": "%"},
      {"measurement": "increase in mitochondrial potential", "setting": "[1]; [3]", "result": 52, "unit": "%"},
      {"measurement": "decrease in UCP2 expression", "setting": "UCP2", "result": 70, "unit": "%"}
    ]}
  ]
}
